How the values were obtained:
S1P3 receptor = conditions: background art; cited from earlier work
S1P1 [1] = target: T1, S1P1 (Homo sapiens, UniProt P21453); conditions: background art; cited from earlier work
S1P5 = conditions: background art; cited from earlier work
[2] = background art; cited from earlier work
S1P1 [3] = target: T1, S1P1; assay: β-arrestin recruitment after S1P1 receptor activation, S1P1 overexpressing cell line (luminescence); conditions: based on the two EC50 values of Table 1

T1 sequence (P21453 whole entry): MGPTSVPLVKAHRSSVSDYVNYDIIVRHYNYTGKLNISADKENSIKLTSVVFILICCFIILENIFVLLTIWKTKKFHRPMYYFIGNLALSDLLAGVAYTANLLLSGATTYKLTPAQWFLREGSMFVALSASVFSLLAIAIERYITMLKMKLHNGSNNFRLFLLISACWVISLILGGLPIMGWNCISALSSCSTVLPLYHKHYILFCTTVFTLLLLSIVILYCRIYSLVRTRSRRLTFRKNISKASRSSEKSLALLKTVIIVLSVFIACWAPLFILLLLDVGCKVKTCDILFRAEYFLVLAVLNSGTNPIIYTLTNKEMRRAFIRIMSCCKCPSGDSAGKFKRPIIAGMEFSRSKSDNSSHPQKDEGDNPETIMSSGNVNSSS

Row | Compound | activation of S1P3 (S1P3 receptor) | activity against S1P1 (S1P1 [1]) | activity against S1P5 (S1P5) | bradycardia side effect [2] | S1P1 activity (overall, in words) (S1P1 [3])
1 | CCc1cc(/C(C)=N/OCc2ccc(C3CCCCC3)c(C(F)(F)F)c2)ccc1CN1CC(C(=O)O)C1 [BAF312] | without activating S1P3 | excellent activity | excellent activity | bradycardia, a side effect of FTY720, still occurred | –
2 | CC(C)Oc1ccc(-c2ncc(-c3ccc(CN4CC(C(=O)[O-])C4)cc3)[se]2)cc1Cl.[Na+] [Compound 13, Sodium 1-(4-(2-(3-chloro-4-isopropoxyphenyl)-1,3-selenazole-5-yl)benzyl)azetidine-3-carboxylate] | – | – | – | – | excellent activity
3 | CCCCCCCCc1ccc(CCC(N)(CO)CO)cc1 [fingolimod] | activation of the S1P3 receptor | – | – | causes bradycardia | –

— patent US20260355161A1, “NOVEL HETEROCYCLYL-PHENYL-METHYLAMINE DERIVATIVES, PREPARATION METHOD THEREOF, AND USE THEREOF IN PREVENTING, ALLEVIATING, OR TREATING MULTIPLE SCLEROSIS” (Cureverse Incorporated, priority 2022, published 2026)
